# In patent US6821980B1, “Substituted 5-benzyl-2,4-diaminopyrimidines” (Basilea Pharmaceutica AG, priority 1999, dated 2004):
# Like-named read-outs stand apart in the source and are kept apart here.
# Experiments:
# [1] = tested on: Streptococcus pneumoniae 1/1; test: MIC against Streptococcus pneumoniae 1/1; assay type: cell-based; conditions: Table 2, Streptococcus pneumoniae 1/1, trimethoprim- and penicillin-resistant, serotype 6, clinical isolate; for MIC: read-out: MIC Sp1/1
# [2] = tested on: Staphylococcus aureus 101; test: MIC against Staphylococcus aureus 101; assay type: cell-based; conditions: Table 2, Staphylococcus aureus 101, MRSA- and trimethoprim-resistant, clinical isolate; for MIC: read-out: MIC Sa101
# [3] = biological target: T1, purified DHFR of strain Sp1/1 of Streptococcus pneumoniae (Streptococcus pneumoniae serotype 4, UniProt Q54801); assay type: biochemical; conditions: Table 2; IC50 against purified DHFR of strain Sp1/1
# T1 sequence (Q54801 1-168 I100L): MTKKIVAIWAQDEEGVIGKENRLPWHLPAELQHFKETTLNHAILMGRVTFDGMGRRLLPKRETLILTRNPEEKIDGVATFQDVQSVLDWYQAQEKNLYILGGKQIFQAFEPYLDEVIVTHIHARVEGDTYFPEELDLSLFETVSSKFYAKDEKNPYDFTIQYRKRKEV
# [4] = biological target: purified DHFR of strain 157/4696 of Staphylococcus aureus (Staphylococcus aureus, UniProt P13955); test: biochemical
# Chain of purified DHFR of strain 157/4696 of Staphylococcus aureus (P13955 whole entry): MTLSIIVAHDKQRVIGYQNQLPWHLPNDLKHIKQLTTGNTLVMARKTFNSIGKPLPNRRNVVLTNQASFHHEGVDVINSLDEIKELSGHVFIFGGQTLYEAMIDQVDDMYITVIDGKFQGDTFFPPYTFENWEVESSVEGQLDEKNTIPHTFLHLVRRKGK
SMILES,MIC [1] [µg/mL],MIC [2] [µg/mL],IC50 [3] [nM],IC50 [4] [nM],MIC Sp1/1 [1] [µg/mL],MIC Sa101 [2] [µg/mL],"IC50 ([4]; Table 2, IC50 against purified DHFR of strain 157/4696 (highly trimethoprim-resistant; clinical isolate), read-out: DHFR Sa1) [nM]"
"CCOc1cc(Cc2cnc(N)nc2N)cc(OS(=O)(=O)CC2CC2)c1-c1ccc(N)c(C)c1 [Example 38-c, Cyclopropylmethane-sulphonic acid 4′-amino-4-(2,4-diamino-pyrimidin-5-ylmethyl)-6-ethoxg-3′-methyl-biphenyl-2-yl ester]",0.5,2,5.8,190,,,
"CCOc1cc(Cc2cnc(N)nc2N)cc(OS(=O)(=O)CC(C)(C)OC)c1-c1ccc(N)c(C)c1 [Example 39-b, (2-Methoxy-2-methyl-propane)-1-sulphonic acid 4′-amino-4-(2,4-diamino-pyrimidin-5-ylmethyl)-6-ethoxy-3′-methyl-biphenyl-2-yl ester]",0.5,4,4.9,250,,,
"CCOc1cc(Cc2cnc(N)nc2N)cc(OS(=O)(=O)C2CCC2)c1-c1cc(N)cc(F)c1 [Example 40-e, Cyclobutane-sulphonic acid 3′-amino-4-(2,4-diamino-pyrimidin-5-ylmethyl)-6-ethoxy-5′-fluoro-biphenyl-2-yl ester]",2,2,79,160,,,
"CCOc1cc(Cc2cnc(N)nc2N)cc(OC2CCCC2)c1-c1cccc(N)c1 [Example 07-d, 5-(3′-Amino-6-cycloventloxy-2-ethoxy-biphenyl-4-ylmethyl)-pyrimidine-2,4-diamine]",1,4,8.2,680,,,
"CCCOc1cc(Cc2cnc(N)nc2N)cc(OCC)c1-c1cccc(O)c1 [Example 53-, 4′-(2,4-Diamino-pyrimidin-5-ylmethyl)-6′-ethoxy-2′-n-propoxy-biphenyl-3-ol]",4,8,28,1800,,,
"CCOc1cc(Cc2cnc(N)nc2N)cc(OS(=O)(=O)CC2CC2)c1-c1cccc(N)c1 [Example 38-a, Cyclopropylmethane-sulphonic acid 3′-amino-4-(2,4-diamino-pyrimidin-5-ylmethyl)-6ethoxy-biphenyl-2-yl ester]",1,2,5.2,160,,,
"CCOc1cc(Cc2cnc(N)nc2N)cc(OS(=O)(=O)CC2CCCO2)c1-c1ccc(N)c(F)c1 (stereo not drawn) [Example 42-b, Tetrahydrofuran-2-yl-methanesulphonic acid 4′-amino-4-(2,4-diamino-primidin-5-ylmethyl)-6-ethoxy-3′-fluoro-biphenAl-2-yl ester]",2,8,7.6,510,,,
"CCOc1cc(Cc2cnc(N)nc2N)cc(OS(=O)(=O)N(C)C)c1-c1cccc(N)c1 [Example 19-a, Dimethyl-sulphamic acid 3′-amino-4-(2,4-diamino-pyrimidin-5-ylmethyl)-6-ethoxy-biphenyl-2-yl ester]",1,1,6.2,85,,,
"CCOc1cc(Cc2cnc(N)nc2N)cc(OCC)c1-c1ccc(F)c(N)c1 [Example 04-n, 5-(3′-Amino-2,6-diethozy-4′-fluoro-biphenyl-4-ylmethyl)-pyrimidine-2,4-diamine]",2,8,68,1400,,,
"CCOc1cc(Cc2cnc(N)nc2N)cc(OCC2CC2)c1-c1ccc(OS(C)(=O)=O)cc1 [Example 57-, Methanesulphonic acid 2′-cylopropylmethoxy-4′-(2,4-diamino-pyrimidin-5-ylmethyl)-6′-ethoxy-biphenyl-4-yl ester]",4,8,30,3600,,,
"CCOc1cc(Cc2cnc(N)nc2N)cc(OCC)c1-c1cccc(OC)c1 [Example 05-a, 5-(2,6-Diethoxy-3′-methoxy-biphenyl-4-ylmethyl)-pyrimidine-2,4-diamine]",2,8,46,6100,,,
"CCOc1cc(Cc2cnc(N)nc2N)cc(OCC)c1-c1ccc(NC(C)=O)c(C)c1 [Example 04-e, N-[4′-(2,4-Diamino-pyrimidin-5-ylmethyl)-2′,6′-diethoxy-3-methyl-biphenyl-4yl]-acetamide]",4,8,30,1800,,,
"CCOc1cc(Cc2cnc(N)nc2N)cc(OCC)c1-c1cccc(NS(C)(=O)=O)c1 [Example 44-, N-[4′-(2,4-Diamino-pyrimidin-5-ylmethyl)-2′,6′-diethoxy-biphenyl-3-yl]-methanesulphonamide]",2,8,18,680,,,
"CCOc1cc(Cc2cnc(N)nc2N)cc(OCC)c1-c1cnc(N2CCOCC2)nc1 [Example 04-k, 5-[3,5-Diethoxy-4-(2-morpholin-4-yl-pyrimidin-5-yl)-benzyl]-pyrimidine-2,4-diamine]",4,8,95,10000,,,
CCCS(=O)(=O)Oc1cc(Cc2cnc(N)nc2N)cc(OCC)c1-c1ccc(N)c(C)c1 [Example 32-b],,,4.2,,1,4,160
"CCOc1cc(Cc2cnc(N)nc2N)cc(OS(=O)(=O)CC(C)C)c1-c1cccc(N)c1 [Example 14-h, 2-Methyl-propane-1-sulphonic acid 3′-amino-4-(2,4-diamino-Dyrimidin-5-ylmethyl)-6-ethoxy-biphenyl-2-yl ester]",0.5,2,4.8,320,,,
"CCOc1cc(Cc2cnc(N)nc2N)cc(OCC)c1-c1ccc(O)c(F)c1 [Example 02-ae, 4′-(2,4-Diamino-pyrimidin-5-ylmethyl)-2′,6′-diethoxy-3-fluoro-biphenyl-4-ol]",8,4,150,1600,,,
"CCOc1cc(Cc2cnc(N)nc2N)cc(OS(=O)(=O)N(C)C)c1-c1cc(N)cc(F)c1 [Example 29-b, Dimethylsulphamic acid 3′-amino-4-(2,4-diamino-pyrimidin-5-ylmethyl)-6-ethoxy-5′-fluoro-biphenyl-2-yl ester]",2,2,14,95,,,
